“Also recorded” adds a separate entry of the source. Structures can show the parent of a compound that is named as a salt.
Assays:
[1] = molecular target: T1, full-length Xenopus Mcm10 (xMcm10-FL) (Xenopus laevis, UniProt Q5EAW4); assay: Fluorescence polarization competition assay, displacement of 5′-6FAM ssDNA probe from xMcm10-FL; type: binding; details: for Ki: averages of n = 2, xMcm10-FL 2 μM; for activity at xMcm10-FL (result in words): FP displacement curves, figure S3
T1 construct: The full-length xMcm10 was expressed with MBP fused onto the N-terminus and 6x-His tag attached to the C-terminus; 6xHis (C); made in house; host or cells: E. coli BL21(DE3), as for the ID constructs ('as described above')
T1 sequence (Q5EAW4 1-860): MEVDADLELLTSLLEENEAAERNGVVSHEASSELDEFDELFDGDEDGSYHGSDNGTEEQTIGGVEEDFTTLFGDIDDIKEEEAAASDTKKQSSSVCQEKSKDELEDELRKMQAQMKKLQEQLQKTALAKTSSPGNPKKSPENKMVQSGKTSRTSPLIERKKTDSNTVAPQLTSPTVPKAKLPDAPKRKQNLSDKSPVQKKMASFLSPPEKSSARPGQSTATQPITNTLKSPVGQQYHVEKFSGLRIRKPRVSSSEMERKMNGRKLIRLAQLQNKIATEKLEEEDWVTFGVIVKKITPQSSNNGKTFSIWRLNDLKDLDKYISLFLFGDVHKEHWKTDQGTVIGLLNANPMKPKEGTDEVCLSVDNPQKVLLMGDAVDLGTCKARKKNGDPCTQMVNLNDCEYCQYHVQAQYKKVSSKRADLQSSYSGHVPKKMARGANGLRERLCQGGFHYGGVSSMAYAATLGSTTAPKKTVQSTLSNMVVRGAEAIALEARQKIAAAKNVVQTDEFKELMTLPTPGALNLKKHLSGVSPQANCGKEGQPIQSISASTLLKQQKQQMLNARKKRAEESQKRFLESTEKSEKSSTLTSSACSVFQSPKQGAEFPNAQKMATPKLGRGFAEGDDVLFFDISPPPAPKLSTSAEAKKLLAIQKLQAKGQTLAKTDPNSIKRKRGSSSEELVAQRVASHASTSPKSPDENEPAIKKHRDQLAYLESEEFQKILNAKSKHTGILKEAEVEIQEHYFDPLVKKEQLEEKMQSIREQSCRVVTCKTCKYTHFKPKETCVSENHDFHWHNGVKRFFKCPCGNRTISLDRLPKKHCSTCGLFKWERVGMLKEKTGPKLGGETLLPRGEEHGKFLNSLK
Protocol: (§1) A fluorescence polarization (FP) HTS assay was established to detect inhibitors of the binding of the 5′-6FAM 10-mer oligo probe to Mcm10. Test compounds dissolved in DMSO were added to 384-well plates (Corning 4514) using an Echo 550 acoustic dispenser (final DMSO 0.1%) to achieve a final single point screening concentration of 10 µM. Then 10 µl of 2× Xenopus internal domain Mcm10 (xMcm10-ID, final concentration 2 µM) in binding buffer (20 mM Tris HCl, 100 mM NaCl, 5% glycerol, and 0.01% triton, pH 7.5) was added using the Combi nL Multidrop dispenser. Finally, 10 µl of 2× 5′-6FAM DNA (final 12.5 nM) in binding buffer was added using the Multidrop. DMSO (0.1%, high signal) and probe only (low signal) controls were included on every plate. Plates were mixed for 2 min, incubated for 60 min at RT in the dark, and read on a CLARIOstar multimode plate reader (excitation: 482-16, emission: 530-40, dichroic filter: LP504).
(§2) The LOPAC pilot screen identified the sulfhydryl reagent 4-chloromercuribenzoic acid as an inhibitor in the fluorescence polarization (FP) assay. As there was no known Mcm10 inhibitor, 4-chloromercuribenzoic acid (30 μM) was used as a positive control on initial screening plates. Following the discovery of suramin as a Mcm10 inhibitor, suramin (7 μM) was used as a positive control on subsequent screening plates. To confirm activity, screening hits were tested in dose response experiments (8 concentrations in duplicate) using xMcm10-ID. Similar dose response experiments were conducted with suramin and its analogs to confirm activity for hMcm10-ID (1 μM) and xMcm10-FL (2 μM) and to determine selectivity relative to RPA70AB (0.4 μM). Saturation experiments for each protein were conducted using increasing concentrations of protein with a fixed probe concentration (12.5 nM). FP was measured in mP units, and ∆mP values for each well were calculated as the difference between the measured mP and the average of the “probe only” controls. […] The parallel and perpendicular mP values were also used to calculate total fluorescence intensity (TFI) determined by the sum of parallel mP + (2 x perpendicular mP). TFI was used to detect fluorescence interference by compounds [1]. […] IC50 values were calculated using the four parameter logistic equation in Prism 6.0 (GraphPad). Ki values were obtained using an online Ki calculator according to the equations of Nikolovska-Coleska (http://sw16.im.med.umich.edu/soft-ware/calc_ki/). KD values were calculated using the one site or two site binding equations in Prism 6.0 (GraphPad).

[2] = molecular target: T2, human RPA70AB (A and B DNA binding domains of RPA70) (Homo sapiens, UniProt P27694); assay: Fluorescence polarization competition assay, displacement of 5′-6FAM ssDNA probe from RPA70AB; details: for Ki: predominant low-affinity (or only) component, mean ± s.e.m., n ≥ 3, read-out: fluorescence polarization hRPA70AB Ki2; for selectivity RPA/ hMcm10: ratio of hRPA70AB Ki2 to hMcm10-ID Ki (FP); for selectivity for hMcm10 over RPA70AB: FP
T2 construct: recombinant human RPA70AB (181-422) in a pSV281 vector; 6xHis (TEV site) (N, cleaved yes); made in house; host or cells: Escherichia coli BL21(DE3)
T2 sequence (P27694 181-422): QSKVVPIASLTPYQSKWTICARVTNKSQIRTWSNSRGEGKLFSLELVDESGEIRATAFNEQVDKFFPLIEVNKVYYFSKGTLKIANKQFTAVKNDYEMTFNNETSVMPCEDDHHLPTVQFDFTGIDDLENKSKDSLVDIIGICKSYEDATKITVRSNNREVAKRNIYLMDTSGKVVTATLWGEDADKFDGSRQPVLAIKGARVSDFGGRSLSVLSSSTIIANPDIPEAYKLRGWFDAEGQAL
Protocol: as §1, §2

[3] = system: HCT116 cells; assay: CellTiter-Glo cell viability assay, HCT116; type: cell-based, human; details: for IC50: Homo sapiens, HCT-116, 96 h, 4 days, intracellular ATP, mean ± s.e.m., n = 3
Protocol: Cells were cultured at 37°C and 5% CO2. […] Cells were allowed to grow for 4 days in inhibitor containing medium and cell viability was measured with the CellTiter-Glo Luminescent Cell Viability Assay (Promega G7572) following the manufacturer's instructions. Viability of each drug treatment condition was normalized to the untreated control for each cell line and fitted to the sigmoidal dose–response variable slope four parameter equation in GraphPad Prism 6.0.

[4] = molecular target: T3, Xenopus internal domain Mcm10 (xMcm10-ID) (Xenopus laevis, UniProt Q5EAW4); assay: Fluorescence polarization HTS and dose-response assay, 5′-6FAM probe binding to xMcm10-ID; details: dose-response with repurchased or purchased compound
T3 construct: xMcm10-ID (amino acid residues 229 to 427); 6xHis (HRV 3C site) (N, cleaved yes); made in house; host or cells: E. coli BL21(DE3)
T3 sequence (Q5EAW4 229-427): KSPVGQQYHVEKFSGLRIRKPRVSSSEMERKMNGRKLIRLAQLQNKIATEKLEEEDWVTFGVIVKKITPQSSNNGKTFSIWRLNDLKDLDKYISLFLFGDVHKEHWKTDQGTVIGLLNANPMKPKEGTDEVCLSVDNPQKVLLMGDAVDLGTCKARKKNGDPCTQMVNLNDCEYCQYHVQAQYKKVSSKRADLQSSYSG
Protocol: as §1, §2

Compound	Ki [1] [µM]	Ki [2] [µM]	selectivity RPA/ hMcm10 [2]	higher cytotoxicity for HCT116 cancer cells in comparison to hTERT RPE-1 cells [3]	selectivity = hTERT RPE-1 IC50/HCT116 IC50 [3]	IC50 [3] [µM]	inhibition of 5′-6FAM probe binding to xMcm10-ID (result in words) [4]	activity at xMcm10-FL (result in words) [1]	selectivity for hMcm10 over RPA70AB [2]	higher affinity for hMcm10-ID over xMcm10-FL ([1]; FP Ki comparison)
O=C(Nc1cccc(C(=O)Nc2ccc(S(=O)(=O)O)c3cc(S(=O)(=O)O)cc(S(=O)(=O)O)c23)c1)Nc1cccc(C(=O)Nc2ccc(S(=O)(=O)O)c3cc(S(=O)(=O)O)cc(S(=O)(=O)O)c23)c1 [NF023]	4.4	11 ± 1	6	–	–	–	–	–	–	–
Cc1ccc(C(=O)Nc2ccc(S(=O)(=O)O)c3cc(S(=O)(=O)O)cc(S(=O)(=O)O)c23)cc1NC(=O)c1cccc(NC(=O)Nc2cccc(C(=O)Nc3cc(C(=O)Nc4ccc(S(=O)(=O)O)c5cc(S(=O)(=O)O)cc(S(=O)(=O)O)c45)ccc3C)c2)c1 [suramin, suramin sodium salt]	3.4	2.5 ± 0.1	3	approximately 3.5 fold	3.7	109 ± 10	active	–	–	–
Cc1nc(/N=N/c2cc(S(=O)(=O)O)ccc2S(=O)(=O)O)c(COP(=O)(O)O)c(C=O)c1O [iso-PPADS, pyridoxalphosphate-6-azophenyl-2’, 5’-disulfonic acid tetrasodium salt]	> 1000	> 1000	>56	little cell type specificity	1.5	370 ± 30	weakly and incompletely inhibit; also recorded: little activity	inactivity	greater than 50 fold	–
O=C(Nc1cccc(C(=O)Nc2cc(C(=O)Nc3ccc(S(=O)(=O)O)c4cc(S(=O)(=O)O)cc(S(=O)(=O)O)c34)ccc2F)c1)Nc1cccc(C(=O)Nc2cc(C(=O)Nc3ccc(S(=O)(=O)O)c4cc(S(=O)(=O)O)cc(S(=O)(=O)O)c34)ccc2F)c1 [NF157]	3.4	1.9 ± 0.1	11	approximately 3.5 fold	3.2	38 ± 1	–	–	more than 10 fold	up to 20 fold
Cc1nc(/N=N/c2ccc(S(=O)(=O)O)cc2S(=O)(=O)O)c(COP(=O)(O)O)c(C=O)c1O [PPADS, pyridoxalphosphate-6-azophenyl-2’, 4’-disulfonic acid tetrasodium salt]	> 1000	> 1000	>59	little cell type specificity	1.3	310 ± 20	weakly and incompletely inhibit; also recorded: little activity	inactivity	greater than 50 fold	–
